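Exposure lasted 48 hours, with cells grown in 96-well plates and compounds tested at five concentrations. Here, GI50 denotes the concentration required for 50% inhibition of growth.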 The source made the active and inactive calls. No stated cut-off is given here; in the data, active = GI50 up to about 1.1 µM and inactive = higher.
Assays:
Test in all cases: DTP human tumour cell line panel, 48 h
Malme-3M = tested on: Malme-3M
HCT-116 = tested on: HCT-116
DMS-114 = tested on: DMS-114
NCI-H226 = tested on: NCI-H226
SR = tested on: SR
RPMI-8226 = tested on: RPMI-8226
HOP-92 = tested on: HOP-92
TK-10 = tested on: TK-10
SF-295 = tested on: SF-295
KM-20L2 = tested on: KM-20L2
A549 = tested on: A549
OVCAR-8 = tested on: OVCAR-8
UACC-257 = tested on: UACC-257
UACC-62 = tested on: UACC-62
LXFL 529 = tested on: LXFL 529
U-251 = tested on: U-251
DLD-1 = tested on: DLD-1
NCI-H460 = tested on: NCI-H460
HOP-62 = tested on: HOP-62
M19-MEL = tested on: M19-MEL
MOLT-4 = tested on: MOLT-4
UO-31 = tested on: UO-31
K562 = tested on: K562
M14 = tested on: M14
NCI-H23 = tested on: NCI-H23
A498 = tested on: A498
XF498 = tested on: XF498
SK-OV-3 = tested on: SK-OV-3
CCRF-CEM = tested on: CCRF-CEM
SW-620 = tested on: SW-620
SF-268 = tested on: SF-268
NCI-H522 = tested on: NCI-H522
SK-MEL-28 = tested on: SK-MEL-28
ACHN = tested on: ACHN
786-0 = tested on: 786-0
IGROV-1 = tested on: IGROV-1
OVCAR-3 = tested on: OVCAR-3
SN12C = tested on: SN12C
SNB-75 = tested on: SNB-75
SK-MEL-5 = tested on: SK-MEL-5
CAKI-1 = tested on: CAKI-1
SNB-19 = tested on: SNB-19
HCC 2998 = tested on: HCC 2998
OVCAR-5 = tested on: OVCAR-5
HL-60 = tested on: HL-60
EKVX = tested on: EKVX
COLO 205 = tested on: COLO 205
SK-MEL-2 = tested on: SK-MEL-2
KM12 = tested on: KM12
HT-29 = tested on: HT-29
OVCAR-4 = tested on: OVCAR-4

Measured: GI50

COc1ccc([C@@]2(O)c3c(ccc(O)c3OC)[C@H]2OC)c(OC)c1
inactive: Malme-3M > 100 µM | HCT-116 33.5 µM | DMS-114 22.1 µM | NCI-H226 > 100 µM | SR 35.6 µM | RPMI-8226 30.1 µM | HOP-92 53.6 µM | TK-10 27.1 µM | SF-295 29.2 µM | KM-20L2 66.5 µM | A549 85.1 µM | OVCAR-8 51.5 µM | UACC-257 > 100 µM | UACC-62 > 10 µM | LXFL 529 30.2 µM | U-251 45.8 µM | DLD-1 47.3 µM | NCI-H460 > 100 µM | HOP-62 > 100 µM | M19-MEL 48.5 µM | MOLT-4 34.7 µM | UO-31 69.3 µM | K562 36.5 µM | M14 > 100 µM | NCI-H23 34.6 µM | A498 > 100 µM | XF498 41.7 µM | SK-OV-3 28.6 µM | CCRF-CEM 36.6 µM | SW-620 46.6 µM | SF-268 75.9 µM | NCI-H522 28.8 µM | SK-MEL-28 47.8 µM | ACHN 86.1 µM | 786-0 41.8 µM | IGROV-1 > 100 µM | OVCAR-3 68.2 µM | SN12C 71.8 µM | SNB-75 39.6 µM | SK-MEL-5 48.6 µM | CAKI-1 35.7 µM | SNB-19 > 100 µM | HCC 2998 44.2 µM | OVCAR-5 > 100 µM | HL-60 31.6 µM | EKVX > 100 µM | COLO 205 44.2 µM | SK-MEL-2 63.4 µM | KM12 39.4 µM | HT-29 37.2 µM | OVCAR-4 67.9 µM

From ChEMBL document CHEMBL1201862, “PubChem BioAssay data set” (2004)
